Calls of active or inactive are those of the source. The calls are words filed in the database; no cut-off is given here.
Tests used:
[1] = system: DU-145; assay: Antiproliferative activity against human DU145 cells after 72 hrs by WST-1 assay; format: functional, cell-based
[2] = system: M12; assay: Reversal of disorganized beta-1 integrin in human M12 cells at 1 uM after 8 days by confocal immunofluorescence microscopy; format: functional, cell-based
[3] = system: M12; assay: Reversal of disorganized alpha6 integrin in human M12 cells at 1 uM after 8 days by confocal immunofluorescence microscopy; format: functional, cell-based
[4] = system: PC-3; assay: Antiproliferative activity against human PC3 cells after 72 hrs by WST-1 assay; format: functional, cell-based
[5] = Inhibition of human M12 cells adhesion at 10 to 100 nM after 24 hrs; format: functional
[6] = system: M12; assay: Reversal of 3D IrECM gel-induced morphological changes in human M12 cells at 500 nM to 1 uM after 5 to 8 days by light microscopic analysis; format: functional, cell-based
[7] = Inhibition of human M12 cells invasion at 50 to 500 nM after 16 hrs; format: functional
[8] = system: M12; assay: Inhibition of human M12 cells invasion after 16 hrs; format: functional, cell-based
[9] = Toxicity in sheep RBC assessed as hemolysis at 1 uM after 60 mins; format: cell-based, Ovis aries; details: erythrocyte, 1 h
[10] = system: M12; assay: Antiproliferative activity against human M12 cells after 72 hrs by WST-1 assay; format: functional, cell-based
[11] = Reduction of vimentin gene expression in human M12 cells at 1 uM after 8 days by confocal immunofluorescence microscopy; format: functional, cell-based
[12] = Antitumor activity against human M12 cells xenografted in athymic nude mouse assessed as reduction of tumor size at 0.3 mg/kg, iv administered once every fourth day for 16 days; format: functional; set-up: scale not given: the % may be the effect or the level left

## CCCCCCCC/C=C\c1c(C)c(/C=C\CCCCCCCC)c2[n+](c1C)CCC2.O=C([O-])C(F)(F)F [ANIBAMINE]
[1]
  Activity: Dose-dependent effect
[2]
  Activity: Active
[3]
  Activity: Active
[4]
  Activity: Dose-dependent effect
[5]
  inhibition (INH): 26%
[6]
  Activity: Active
[7]
  inhibition (INH): 42%
[8]
  inhibition: Dose-dependent effect
[9]
  Activity: Non-toxic
[10]
  Activity: Dose-dependent effect
[11]
  Activity: Active
[12]
  Activity: 50%
